The target of experiment [1] is human orexin-2 receptor (Homo sapiens (Human), UniProt O43614). The experiment is described as follows: FLIPR Ca2+ flux assay, hOX2R. Type of experiment: cell-based. The conditions noted are these: CHO cells expressing the human orexin-2 receptor; agonist 70 pM Ala-6,12 orexin-A. How it is done:
The utility of the compounds in accordance with the present invention as orexin receptor OX1R and/or OX2R antagonists may be readily determined without undue experimentation by methodology well known in the art, including the “FLIPR Ca^2+ Flux Assay” (Okumura et al., Biochem. Biophys. Res. Comm. 280:976-981, 2001). In a typical experiment the OX1 and OX2 receptor antagonistic activity of the compounds of the present invention was determined in accordance with the following experimental method. For intracellular calcium measurements, Chinese hamster ovary (CHO) cells expressing the rat orexin-1 receptor or the human orexin-2 receptor, are grown in Iscove's modified DMEM containing 2 mM L-glutamine, […], 1% hypoxanthine-thymidine supplement, 100 U/ml penicillin, 100 μg/ml streptomycin and 10% heat-inactivated fetal calf serum (FCS). The cells are seeded at 20,000 cells/well into Becton-Dickinson black 384-well clear bottom sterile plates coated with poly-D-lysine. All reagents were from GIBCO-Invitrogen Corp. The seeded plates are incubated overnight at 37° C. and 5% CO2. Ala-6,12 human orexin-A as the agonist is prepared as a 1 mM stock solution in 1% bovine serum albumin (BSA) and diluted in assay buffer (HBSS containing 20 mM HEPES, 0.1% BSA and 2.5 mM probenecid, pH7.4) for use in the assay at a final concentration of 70pM. Test compounds are prepared as 10 mM stock solution in DMSO, then diluted in 384-well plates, first in DMSO, then assay buffer. On the day of the assay, cells are washed 3 times with 100 μl assay buffer and then incubated for 60 min (37° C., 5% CO2) in 60 μl assay buffer containing 1 μM Fluo-4AM ester, 0.02% pluronic acid, and 1% BSA. The dye loading solution is then aspirated and cells are washed 3 times with 100 μl assay buffer. 30 μl of that same buffer is left in each well. Within the Fluorescent Imaging Plate Reader (FLIPR, Molecular Devices), test compounds are added to the plate in a volume of 25 μl, incubated for 5 min and finally 25 μl of agonist is added. Fluorescence is measured for each well at 1 second intervals for 5 minutes and the height of each fluorescence peak is compared to the height of the fluorescence peak induced by 70 pM Ala-6,12 orexin-A with buffer in place of antagonist. For each antagonist, IC50 value (the concentration of compound needed to inhibit 50% of the agonist response) is determined. Alternatively, compound potency can be assessed by a radioligand binding assay (described in Bergman et. al. Bioorg. Med. Chem. Lett. 2008, 18, 1425-1430) in which the inhibition constant (Ki) is determined in membranes prepared from CHO cells expressing either the OX1 or OX2 receptor. The intrinsic orexin receptor antagonist activity of a compound which may be used in the present invention may be determined by these assays.

In experiment [2] the target is hOX1R (orexin-1 receptor) (Homo sapiens, UniProt O43613). The experiment is described as follows: FLIPR Ca2+ flux assay, hOX1R. The conditions noted are these: CHO cells expressing the orexin-1 receptor (head: hOX1R; method: rat); agonist 70 pM Ala-6,12 orexin-A. The class given is cell-based.

Molecules are shown by their SMILES. A value given as a limit tells only on which side of the number the result lay.

Sequence of human orexin-2 receptor (O43614 whole entry): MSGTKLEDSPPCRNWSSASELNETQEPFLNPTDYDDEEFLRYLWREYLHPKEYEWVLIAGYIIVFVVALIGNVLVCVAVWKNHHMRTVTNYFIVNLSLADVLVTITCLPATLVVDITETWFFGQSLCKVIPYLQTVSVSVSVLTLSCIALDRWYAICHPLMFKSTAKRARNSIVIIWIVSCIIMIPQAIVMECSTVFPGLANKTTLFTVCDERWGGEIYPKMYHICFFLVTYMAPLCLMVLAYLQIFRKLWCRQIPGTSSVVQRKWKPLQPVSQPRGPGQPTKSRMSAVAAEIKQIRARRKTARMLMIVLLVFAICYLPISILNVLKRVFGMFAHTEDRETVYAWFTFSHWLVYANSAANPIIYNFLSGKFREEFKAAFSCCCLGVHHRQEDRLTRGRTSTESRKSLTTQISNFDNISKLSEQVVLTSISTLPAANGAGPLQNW

By IC50 is commonly meant the concentration at which inhibition is half-maximal. With `COC(=O)c1c(OC)ccnc1N[C@@H]1C[C@@H](C)N(C(=O)c2ccccc2-n2nccn2)C1` [Example 32, Methyl 2-(((3R,5R)-1-(2-(2H-1,2,3-triazol-2-yl)benzoyl)-5-methylpyrrolidin-3-yl)amino)-4-methoxynicotinate], the IC50 in experiment [1] was 0.0297 µM; in experiment [2], 6.75 µM.

Regarding `CCOC(=O)c1c(OC)ccnc1N[C@@H]1C[C@@H](C)N(C(=O)c2ccccc2-n2nccn2)C1` [Example 33, Ethyl 2-(((3R,5R)-1-(2-(2H-1,2,3-triazol-2-yl)benzoyl)-5-methylpyrrolidin-3-yl)amino)-4-methoxynicotinate], the IC50 in experiment [1] worked out at 0.0311 µM; in experiment [2], 4.07 µM.

As to `CCOc1ccnc(N[C@@H]2C[C@@H](C)N(C(=O)c3ccccc3-n3nccn3)C2)c1C(=O)OC` [Example 34, Methyl 2-(((3R,5R)-1-(2-(2H-1,2,3-triazol-2-yl)benzoyl)-5-methylpyrrolidin-3-yl)amino)-4-ethoxynicotinate], the results for the concentration for half-maximal inhibition (IC50) in experiment [1] and in experiment [2] were 0.0662 µM and above 10 µM, respectively.

For `C[C@@H]1C[C@@H](N(C)c2cc(Br)ccn2)CN1C(=O)c1ccccc1-n1nccn1` [Example 35, (2-(2H-1,2,3-Triazol-2-yl)phenyl)((2R,4R)-4-((4-bromopyridin-2-yl)(methyl)amino)-2-methylpyrrolidin-1-yl)methanone], the IC50 amounted to 0.136 µM in experiment [1] and 2.25 µM in experiment [2].

Consider `Cc1c(C#N)ccnc1N[C@@H]1C[C@@H](C)N(C(=O)c2ccccc2-n2nccn2)C1` [Example 36, 2-(((3R,5R)-1-(2-(2H-1,2,3-Triazol-2-yl)benzoyl)-5-methylpyrrolidin-3-yl)amino)-3-methylisonicotinonitrile], for which the half-maximal inhibitory concentration (IC50) is 0.0236 µM in experiment [1] and 3.35 µM in experiment [2].

As for `Cc1c(C#N)ccnc1N(C)[C@@H]1C[C@@H](C)N(C(=O)c2ccccc2-n2nccn2)C1` [Example 37, 2-(((3R,5R)-1-(2-(2H-1,2,3-Triazol-2-yl)benzoyl)-5-methylpyrrolidin-3-yl)(methyl)amino)-3-methylisonicotinonitrile], the IC50 in experiment [1] is 3.21 µM; in experiment [2] it was above 10 µM.

On to `COC(=O)c1c(C#N)ccnc1N[C@@H]1C[C@@H](C)N(C(=O)c2ccccc2-n2nccn2)C1` [Example 38, Methyl 2-(((3R,5R)-1-(2-(2H-1,2,3-triazol-2-yl)benzoyl)-5-methylpyrrolidin-3-yl)amino)-4-cyanonicotinate], for which the IC50 in experiment [1] was 0.0146 µM; in experiment [2], 1.55 µM.

For `COc1c(C#N)ccnc1N[C@@H]1C[C@@H](C)N(C(=O)c2ccccc2-n2nccn2)C1` [Example 39, 2-(((3R,5R)-1-(2-(2H-1,2,3-Triazol-2-yl)benzoyl)-5-methylpyrrolidin-3-yl)amino)-3-methoxyisonicotinonitrile], the IC50 in experiment [1] was 0.0408 µM; in experiment [2], above 10 µM.

In the case of `COc1cccnc1N[C@@H]1C[C@@H](C)N(C(=O)c2ccccc2-c2noc(C)n2)C1` [Example 42, ((2R,4R)-4-((3-Methoxypyridin-2-yl)amino)-2-methylpyrrolidin-1-yl)(2-(5-methyl-1,2,4-oxadiazol-3-yl)phenyl)methanone], the 50% inhibitory concentration (IC50) in experiment [1] is 0.5 µM; in experiment [2], 10 µM.

Take `COc1cccnc1N[C@@H]1C[C@@H](C)N(C(=O)c2nccnc2-n2cccn2)C1` [Example 43, (3-(1H-Pyrazol-1-yl)pyrazin-2-yl)((2R,4R)-4-((3-methoxypyridin-2-yl)amino)-2-methylpyrrolidin-1-yl)methanone]: the concentration for half-maximal inhibition (IC50) in experiment [1] was found to be 1.5 µM; in experiment [2], 10 µM.

`COc1cccnc1N[C@@H]1C[C@@H](C)N(C(=O)c2nccnc2-c2ccccn2)C1` [Example 44, ((2R,4R)-4-((3-Methoxypyridin-2-yl)amino)-2-methylpyrrolidin-1-yl)(3-(pyridin-2-yl)pyrazin-2-yl)methanone]: the results for the IC50 in experiment [1] and in experiment [2] were 2.37 µM and 10 µM, respectively.
